This assay deals with T1, PCID2 (PCI-domain containing protein 2) (Homo sapiens, UniProt Q5JVF3).
T1 construct: amine-type direct coupling to CM5 chip; DSS1 not mentioned in the SPR test
Description: SPR (Biacore, CM5 chip, […] Langmuir global fit). The format is binding. (In general: In SPR one partner is held on a chip, and binding of the other changes the refractive index at the surface.)

T1 sequence (Q5JVF3 2-399): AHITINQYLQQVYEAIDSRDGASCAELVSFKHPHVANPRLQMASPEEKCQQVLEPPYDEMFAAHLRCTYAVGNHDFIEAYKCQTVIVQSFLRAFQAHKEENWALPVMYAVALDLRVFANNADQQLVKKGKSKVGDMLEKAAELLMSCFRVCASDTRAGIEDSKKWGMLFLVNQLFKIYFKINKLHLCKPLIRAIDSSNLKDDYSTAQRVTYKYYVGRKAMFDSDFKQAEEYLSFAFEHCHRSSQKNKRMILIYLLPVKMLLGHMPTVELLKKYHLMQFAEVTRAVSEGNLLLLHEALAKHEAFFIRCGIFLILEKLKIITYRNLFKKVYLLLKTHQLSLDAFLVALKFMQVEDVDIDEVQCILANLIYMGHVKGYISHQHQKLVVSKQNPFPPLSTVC

Turning to `O=C(OC[C@H]1O[C@@H](OC(=O)c2cc(O)c(O)c(O)c2)[C@H](OC(=O)c2cc(O)c(O)c(O)c2)[C@@H](OC(=O)c2cc(O)c(O)c(O)c2)[C@@H]1OC(=O)c1cc(O)c(O)c(O)c1)c1cc(O)c(O)c(O)c1` [#02, 1,2,3,4,6-Penta-O-galloyl-β-D-glucose], the affinity, expressed as Kd, was 5.27 µM.

Source of the values: publication PMC12698594, “A natural PCID2-Targeting compound suppresses hepatocellular carcinoma progression: evidence from structure-based discovery and biological evaluation” (Frontiers in Pharmacology, 2025).
